In patent US8889712B2, “IAP antagonists” (Bristol-Myers Squibb Company, priority 2012, dated 2014):
Like-named read-outs stand apart in the source and are kept apart here.

What was measured:
[1] = biological target: T1, XIAP BIR3 (Homo sapiens, UniProt P98170); test: XIAP-BIR3/SMAC Homogeneous Time Resolved Fluorescence (HTRF) Assay; type: binding
T1 construct: His-BIR3 (241-356, XIAP)
Procedure: A. XIAP-BIR3/SMAC Homogeneous Time Resolved Fluorescence (HTRF) Assay Assays were performed in black, flat-bottom, 384-well plates. […] The reaction was incubated at room temperature for 60 minutes, following which 10 μl of mouse anti-6×His-terbium labeled Fab (Medarex, Cis-bio) was added to the reaction (40 μl) for an additional 30 minute incubation. […] Compounds were dissolved at 3 mM in dimethylsulfoxide (DMSO) and evaluated at eleven serially diluted concentrations. IC50 and Ki values were derived by non-linear regression analysis.

[2] = biological target: T2, XIAP BIR2-3 (Homo sapiens, UniProt P98170, C202A/C213G); test: XIAP-BIR2-3 dimeric SMAC Peptide Homogeneous Time Resolved Fluorescence (HTRF) Assay; type: binding
T2 construct: His-BIR2-3 (125-356, C202A/C213G, XIAP)
Procedure: B. […] Assays were performed in black, flat-bottom, 384-well plates. […] Compounds were dissolved at 3 mM in dimethylsulfoxide (DMSO) and evaluated at eleven serially diluted concentrations. IC50 and Ki values were derived by non-linear regression analysis.

[3] = 1 nM N-His-BIR3 (241-356, XIAP), 5 nM fluorescein labeled SMAC peptide, HTRF signal, read-out: XIAP BIR3 IC50
[4] = 0.5 nM N-His-BIR2-3 (125-356, C202A/C213G, XIAP), 20 nM fluorescein labeled dimeric SMAC peptide, HTRF signal, read-out: XIAP BIR2-3 IC50

T2 sequence (P98170 125-356 C202A/C213G): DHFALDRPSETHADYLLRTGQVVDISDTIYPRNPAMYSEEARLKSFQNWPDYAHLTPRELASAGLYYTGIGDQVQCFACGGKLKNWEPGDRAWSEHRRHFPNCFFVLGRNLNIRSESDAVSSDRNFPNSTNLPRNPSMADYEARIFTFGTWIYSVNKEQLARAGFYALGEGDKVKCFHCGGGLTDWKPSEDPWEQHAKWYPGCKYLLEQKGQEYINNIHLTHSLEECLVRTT
T1 sequence (P98170 241-356): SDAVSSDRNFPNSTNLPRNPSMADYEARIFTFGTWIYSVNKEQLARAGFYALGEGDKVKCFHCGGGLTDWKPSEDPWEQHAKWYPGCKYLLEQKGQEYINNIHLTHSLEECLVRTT

| Structure (SMILES) | IC50 [1, 3] [nM] | IC50 [2, 4] [nM] | IC50 [1] [nM] | IC50 [2] [nM] |
| --- | --- | --- | --- | --- |
| CCC(CC)[C@H](NC(=O)[C@H](CC)NC)C(=O)N1C[C@@H](NC(=O)c2ccc3c(c2)CN(C(=O)[C@@H](NC(=O)[C@H](C)NC)C(C)(C)C)[C@H](C(=O)N[C@@H]2CCCc4ccccc42)C3)C[C@H]1C(=O)N[C@@H]1CCCc2ccccc21 [Example 16, (S)-2-((S)-3,3-Dimethyl-2-((S)-2-(methylamino)propanamido)butanoyl)-N^7-((3S,5S)-1-((S)-3-ethyl-2-((S)-2-(methylamino)butanamido)pentanoyl)-5-(((R)-1,2,3,4-tetrahydronaphthalen-1-yl)carbamoyl)pyrrolidin-3-yl)-N^3-((R)-1,2,3,4-tetrahydronaphthalen-1-yl)-1,2,3,4-tetrahydroisoquinoline-3,7-dicarboxamide] | 19 | 10 | – | – |
| CN[C@@H](C)C(=O)N[C@H](C(=O)N1Cc2cc(N[C@H]3C[C@@H](C(=O)N[C@@H]4CCCc5ccccc54)N(C(=O)[C@@H](NC(=O)[C@H](C)NC)C(C)(C)C)C3)ccc2C[C@H]1C(=O)N[C@@H]1CCCc2ccccc21)C(C)(C)C [Example 20, (S)-2-((S)-3,3-Dimethyl-2-((S)-2-(methylamino)propanamido)butanoyl)-7-(((3S,5S)-1-((S)-3,3-dimethyl-2-((S)-2-(methylamino)propanamido)butanoyl)-5-(((R)-1,2,3,4-tetrahydronaphthalen-1-yl)carbamoyl)pyrrolidin-3-yl)amino)-N—((R)-1,2,3,4-tetrahydronaphthalen-1-yl)-1,2,3,4-tetrahydroisoquinoline-3-carboxamide] | – | – | 13 | 3 |
| CN[C@@H](C)C(=O)N[C@H](C(=O)N1Cc2cc(O[C@H]3C[C@@H](C(=O)N[C@@H]4CCCc5ccccc54)N(C(=O)[C@@H](NC(=O)[C@H](C)NC)C(C)(C)C)C3)ccc2C[C@H]1C(=O)N[C@@H]1CCCc2ccccc21)C(C)(C)C [Example 21, (S)-2-((S)-3,3-Dimethyl-2-((S)-2-(methylamino)propanamido)butanoyl)-7-(((3S,5S)-1-((S)-3,3-dimethyl-2-((S)-2-(methylamino)propanamido)butanoyl)-5-(((R)-1,2,3,4-tetrahydronaphthalen-1-yl)carbamoyl)pyrrolidin-3-yl)oxy)-N—((R)-1,2,3,4-tetrahydronaphthalen-1-yl)-1,2,3,4-tetrahydroisoquinoline-3-carboxamide] | – | – | 30 | 3 |
| CN[C@@H](C)C(=O)N[C@H](C(=O)N1Cc2cc([C@H]3C[C@@H](C(=O)N[C@@H]4CCCc5ccccc54)N(C(=O)[C@@H](NC(=O)[C@H](C)NC)C(C)(C)C)C3)ccc2C[C@H]1C(=O)N[C@@H]1CCCc2ccccc21)C(C)(C)C [Example 22, (S)-2-((S)-3,3-Dimethyl-2-((S)-2-(methylamino)propanamido)butanoyl)-7-((3R,5S)-1-((S)-3,3-dimethyl-2-((S)-2-(methylamino)propanamido)butanoyl)-5-(((R)-1,2,3,4-tetrahydronaphthalen-1-yl)carbamoyl)pyrrolidin-3-yl)-N—((R)-1,2,3,4-tetrahydronaphthalen-1-yl)-1,2,3,4-tetrahydroisoquinoline-3-carboxamide] | – | – | 2 | 1 |

The remaining molecules from weak to strong by IC50 [1, 3], led by results:

| IC50 [1, 3] [nM] | IC50 [2, 4] [nM] | Structure (SMILES) | IC50 [1] [nM] | IC50 [2] [nM] |
| --- | --- | --- | --- | --- |
| 16 | 5 | CC[C@H](NC)C(=O)N[C@H](C(=O)N1C[C@@H](NC(=O)c2ccc3c(c2)CN(C(=O)[C@@H](NC(=O)[C@H](C)NC)C(C)(C)C)[C@H](C(=O)N[C@@H]2CCCc4ccccc42)C3)C[C@H]1C(=O)N[C@@H]1CCCc2ccccc21)C(C)(C)C [Example 15, (S)-N^7-((3S,5S)-1-((S)-3,3-Dimethyl-2-((S)-2-(methylamino)butanamido)butanoyl)-5-(((R)-1,2,3,4-tetrahydronaphthalen-1-yl)carbamoyl)pyrrolidin-3-yl)-2-((S)-3,3-dimethyl-2-((S)-2-(methylamino)propanamido)butanoyl)-N^3-((R)-1,2,3,4-tetrahydronaphthalen-1-yl)-1,2,3,4-tetrahydroisoquinoline-3,7-dicarboxamide] | – | – |
| 9 | 4 | CCN[C@@H](C)C(=O)N[C@H](C(=O)N1Cc2cc(C(=O)N[C@H]3C[C@@H](C(=O)N[C@@H]4CCCc5ccccc54)N(C(=O)[C@@H](NC(=O)[C@H](C)NC)C(C)(C)C)C3)ccc2C[C@H]1C(=O)N[C@@H]1CCCc2ccccc21)C(CC)CC [Example 18, (S)-N^7-((3S,5S)-1-((S)-3,3-Dimethyl-2-((S)-2-(methylamino)propanamido)butanoyl)-5-(((R)-1,2,3,4-tetrahydronaphthalen-1-yl)carbamoyl)pyrrolidin-3-yl)-2-((S)-3-ethyl-2-((S)-2-(ethylamino)propanamido)pentanoyl)-N^3-((R)-1,2,3,4-tetrahydronaphthalen-1-yl)-1,2,3,4-tetrahydroisoquinoline-3,7-dicarboxamide] | – | – |
| 7 | 2 | CCC(CC)[C@H](NC(=O)[C@H](CC)NC)C(=O)N1Cc2cc(C(=O)N[C@H]3C[C@@H](C(=O)N[C@@H]4CCCc5ccccc54)N(C(=O)[C@@H](NC(=O)[C@H](C)NC)C(C)(C)C)C3)ccc2C[C@H]1C(=O)N[C@@H]1CCCc2ccccc21 [Example 19, (S)-N^7-((3S,5S)-1-((S)-3,3-Dimethyl-2-((S)-2-(methylamino)propanamido)butanoyl)-5-(((R)-1,2,3,4-tetrahydronaphthalen-1-yl)carbamoyl)pyrrolidin-3-yl)-2-((S)-3-ethyl-2-((S)-2-(methylamino)butanamido)pentanoyl)-N^3-((R)-1,2,3,4-tetrahydronaphthalen-1-yl)-1,2,3,4-tetrahydroisoquinoline-3,7-dicarboxamide] | – | – |
| 4 | 3 | CN[C@@H](C)C(=O)N[C@H](C(=O)N1Cc2cc([C@H]3C[C@@H](C(=O)N[C@@H]4CCCc5ccccc54)N(C(=O)[C@@H](NC(=O)[C@H](C)NC)C(C)(C)C)C3)ccc2C[C@H]1C(=O)N[C@H](C)c1ccccc1F)C(C)(C)C [Example 23, (S)-2-((S)-3,3-Dimethyl-2-((S)-2-(methylamino)propanamido)butanoyl)-7-((3R,5S)-1-((S)-3,3-dimethyl-2-((S)-2-(methylamino)propanamido)butanoyl)-5-(((R)-1,2,3,4-tetrahydronaphthalen-1-yl)carbamoyl)pyrrolidin-3-yl)-N—((R)-1-(2-fluorophenyl)ethyl)-1,2,3,4-tetrahydroisoquinoline-3-carboxamide] | – | – |
| 4 | 3 | CN[C@@H](C)C(=O)N[C@H](C(=O)N1Cc2ccc(C(=O)N[C@H]3C[C@@H](C(=O)N[C@@H]4CCCc5ccccc54)N(C(=O)[C@@H](NC(=O)[C@H](C)NC)C(C)(C)C)C3)cc2C[C@H]1C(=O)N[C@@H]1CCCc2ccccc21)C(C)(C)C [Example 25, (S)-2-((S)-3,3-Dimethyl-2-((S)-2-(methylamino)propanamido)butanoyl)-N6-((3S,5S)-1-((S)-3,3-dimethyl-2-((S)-2-(methylamino)propanamido)butanoyl)-5-(((R)-1,2,3,4-tetrahydronaphthalen-1-yl)carbamoyl)pyrrolidin-3-yl)-N^3—((R)-1,2,3,4-tetrahydronaphthalen-1-yl)-1,2,3,4-tetrahydroisoquinoline-3,6-dicarboxamide] | – | – |
| 3 | 1 | CN[C@@H](C)C(=O)N[C@H](C(=O)N1Cc2cc([C@H]3C[C@@H](C(=O)N[C@@H]4CCCc5ccccc54)N(C(=O)[C@@H](NC(=O)[C@H](C)NC)C(C)(C)C)C3)ccc2C[C@H]1C(=O)N[C@@H]1CCCc2ccccc21)C1CCOCC1 [Example 24, (S)-7-((3R,5S)-1-((S)-3,3-Dimethyl-2-((S)-2-(methylamino)propanamido)butanoyl)-5-(((R)-1,2,3,4-tetrahydronaphthalen-1-yl)carbamoyl)pyrrolidin-3-yl)-2-((S)-2-((S)-2-(methylamino)propanamido)-2-(tetrahydro-2H-pyran-4-yl)acetyl)-N—((R)-1,2,3,4-tetrahydronaphthalen-1-yl)-1,2,3,4-tetrahydroisoquinoline-3-carboxamide] | – | – |
| 2 | 2 | CCC(CC)[C@H](NC(=O)[C@H](C)NC)C(=O)N1C[C@@H](NC(=O)c2ccc3c(c2)CN(C(=O)[C@@H](NC(=O)[C@H](C)NC)C(C)(C)C)[C@H](C(=O)N[C@@H]2CCCc4ccccc42)C3)C[C@H]1C(=O)N[C@@H]1CCCc2ccccc21 [Example 17, (S)-2-((S)-3,3-Dimethyl-2-((S)-2-(methylamino)propanamido)butanoyl)-N^7-((3S,5S)-1-((S)-3-ethyl-2-((S)-2-(methylamino)propanamido)pentanoyl)-5-(((R)-1,2,3,4-tetrahydronaphthalen-1-yl)carbamoyl)pyrrolidin-3-yl)-N^3-((R)-1,2,3,4-tetrahydronaphthalen-1-yl)-1,2,3,4-tetrahydroisoquinoline-3,7-dicarboxamide] | – | – |
